Laboratory results from patent US20040019092A1, “Non-peptide somatostatin receptor ligands” (priority 2001, published 2004).
Where “and” joins values, the source holds several entries; their conditions need not be identical. Equal entries are not always repeated. Each block holds one compound with its values, some of them ahead of it.

Key:
[1] = molecular target: T1, SS-1 sites (sst2 receptors) (Rattus norvegicus, UniProt P30680); assay: Ex-vivo binding of [^125I]-labeled Tyr^3 analogue of Octreotride (SS-1/sst2) in rat cortex and hippocampus after s.c. dosing; parameters: species or system Wistar rats; conditions: for NS non specific binding, individual animals / NS non specific binding, mean / SB specific binding, individual animals / SB specific binding, mean / TB total binding, individual animals / TB total binding, mean / percent specific binding remaining compared to controls: Tyr^3-Oct, 60 min
T1 construct: from tissue; host or cells: Wistar rat cerebral cortex and hippocampus homogenate
T1 sequence (P30680 whole entry): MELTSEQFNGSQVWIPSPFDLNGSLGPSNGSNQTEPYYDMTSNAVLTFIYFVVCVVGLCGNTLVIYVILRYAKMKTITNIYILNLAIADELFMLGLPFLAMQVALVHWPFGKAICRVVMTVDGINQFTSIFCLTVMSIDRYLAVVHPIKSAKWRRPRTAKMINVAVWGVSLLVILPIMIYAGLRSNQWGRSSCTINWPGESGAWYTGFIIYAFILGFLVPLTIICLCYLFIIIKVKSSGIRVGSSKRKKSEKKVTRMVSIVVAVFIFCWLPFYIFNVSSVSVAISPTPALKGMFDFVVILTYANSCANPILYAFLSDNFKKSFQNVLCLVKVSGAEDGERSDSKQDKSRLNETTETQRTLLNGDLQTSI
Description: Ex-vivo binding was used to determine to whether compound 14 (a potent sst2 receptor selective hydantoin) when applied peripherally to rates can cross the blood brain barrier, as robust behavioral models are not fully characterized and blood-brain penetration models are not routinely available. […] The rats were given saline or drug sub-cutaneously at the indicated dose (in saline) and killed 60 minutes after application with CO2. The brain was removed and placed on ice; the cerebral cortex and hippocampus were dissected out and weighted. […] The homogenate was stored on ice and used immediately or deep frozen (-70° C.) until used (1-3 days). […] The filters were dried and counted in a Wallac Beta plate counter. The tables list the effects of compound 14 on cortex (Table 6) and hippocampus (Table 7) binding at the doses and times indicated (see also FIGS. 3 and 4). TB=total binding, NS=non specific binding, SB=specific binding. The values are indicated in cpm for individual animals, mean, n=number of animals, sem=standard error of the mean; percent=% specific binding remaining following treatment compared to controls.

[2] = In vitro blood distribution; format: in vitro ADME; conditions: rat blood, 5-5000 ng/mL
Description: (§1) In vitro blood distribution and plasma protein binding. For blood distribution studies, fresh, heparinized rat blood (n=3) was spiked with [^14C]-42 to achieve the final concentrations of 5, 50, 500 and 5000 ng/mL. After a 30-minutes incubation at 4° C., 22° C. and 37° C., the samples were centrifuged (1600×g, 10 minutes, at the incubation temperature) to get plasma. The fraction free of 42 in plasma of rat and human was determined by equilibrium dialysis. Phosphate buffer was spiked with [^14C]-42 (50, 500, 5000 ng/mL) and dialyzed versus blank rat and human plasma at 37° C. for 2 hours. The radioactivity was determined in spiked blood samples, in plasma obtained after centrifugation and in both compartments after dialysis.

[3] = male, Wistar, rat, in vivo, iv
Description: (§2) The pharmacokinetic study was performed with 3 male Wistar rats (BRL) weighing 300-330 g with a one week interval between administration phases. The day before the first dosing, the rats underwent surgical implantation of an in-dwelling cannula; the right femoral artery was cannulated and the tube was passed subcutaneously to emerge at the back of the neck. The animals were individually housed in metabolism cages and fasted overnight before administrations.
(§3) The dose solution was administered (5 mL/kg) by gastric incubation.
(§4) The dose solution was administered (2 mL/kg) into the surgically exposed femoral vein.
(§5) During the study, 18 blood samples (100-500 μL) were taken, up to 48 hours post-dose from the cannulated femoral artery representing a total volume of 5.7 mL blood. The loss of blood was compensated by infusion of 6 times 1 mL of blood from donor rats. Urine samples were collected up to 48 hours post-dose. For the analysis of the in vivo brain distribution, 3 male rats were intravenously dosed (1 mg/kg or 72 μCi/kg) as described above. At 0.5 hours after administration, the rats were sacrificed; blood and brain were collected.
(§6) Determination of radioactivity in blood, plasma, brain homogenates and in urine, was carried out by direct liquid scintillation counting. Prior to radiometric determination, blood and tissue were solubilized in Solutron (Kontron Instruments, Zurich, Switzerland). After adding 10 mL of scintillation cocktail (Lumasafe, Lumac, Landgraaf, the Netherlands), all samples were counted in Tri-carb liquid scintillation analyzer (Canberra Packard, IL).
(§7) The procedure involved the addition of 5 μg of non-radiolabeled 42 to each blood sample as an internal standard. After adding 1 mL of acetonitrile, the sample was mixed with a Polytron mixer and centrifuged (234000×g, 30 minutes) in a Beckman centrifuge (Model TL100). The supernatant was evaporated in a vacuum centrifuge (Univapo 150H, Zivy). The residue was reconstituted in 250 μL of mobile phase-water (3:1 v/v) and centrifuged (3000×g, 60 s). The supernatant (200 μL) was injected onto HPLC. […] Compound 42 was separated from potential metabolites and endogenous compounds on a RP18 endcapped Superspher column, 125 mm×4 mm (Merck) at 45° C. The mobile phase consisted of 0.1% tetramethylammonium hydroxide—acetonitrile (500:500 v/v). The flow rate was 1 mL/min; the effluent was monitored at 260 nm. […] The limit of quantification was 0.3 ng/mL.
(§8) The peeling method was applied to describe the data by a compartment model approach, characterized by the following equation: C═C1*e^λ1−t+C2*e^λ2−t. The initial estimates of C1, λ1, C2, λ2 were taken to generate the best fit using the computer software ELSFIT. The estimates for half-lives were calculated as T1/2λi=ln2/λi.

[4] = Plasma protein binding, equilibrium dialysis, rat plasma; format: in vitro ADME
Description: as §1

in vivo = conditions: male, Wistar, rat
Description: as §2, §3, §4, §5, §6, §7, §8

SMILES: Cc1cccc2c(CC3C(=O)N(CCCCCN)C(=O)N3S(=O)(=O)c3ccc(Oc4ccc(O)cc4)c(C#N)c3)c[nH]c12 (centres unmarked) [Compound 14]
maximal decrease of sst2 (SS-1) binding ([1]; cortex and hippocampus, 10 mg/kg subcutaneous, 60 minutes): about 20%
NS non specific binding, individual animals ([1]; cortex, 0.3 mg/kg s.c.): 2753 cpm and 2634 cpm and 2685 cpm
NS non specific binding, mean ([1]; cortex, 0.3 mg/kg s.c.): 2691 cpm
SB specific binding, individual animals ([1]; cortex, 0.3 mg/kg s.c.): 22427 cpm and 21257 cpm and 23789 cpm
SB specific binding, mean ([1]; cortex, 0.3 mg/kg s.c.): 22491 cpm
TB total binding, individual animals ([1]; cortex, 0.3 mg/kg s.c.): 25180 cpm and 23891 cpm and 26474 cpm
TB total binding, mean ([1]; cortex, 0.3 mg/kg s.c.): 25182 cpm
percent specific binding remaining compared to controls ([1]; cortex, 0.3 mg/kg s.c.): 98%
NS non specific binding, individual animals ([1]; cortex, 1 mg/kg s.c.): 2623 cpm and 2705 cpm and 2642 cpm
NS non specific binding, mean ([1]; cortex, 1 mg/kg s.c.): 2657 cpm
SB specific binding, individual animals ([1]; cortex, 1 mg/kg s.c.): 19722 cpm and 23378 cpm and 21824 cpm
SB specific binding, mean ([1]; cortex, 1 mg/kg s.c.): 21641 cpm
TB total binding, individual animals ([1]; cortex, 1 mg/kg s.c.): 22345 cpm and 26063 cpm and 24466 cpm
TB total binding, mean ([1]; cortex, 1 mg/kg s.c.): 24298 cpm
percent specific binding remaining compared to controls ([1]; cortex, 1 mg/kg s.c.): 94%
NS non specific binding, individual animals ([1]; cortex, 3 mg/kg s.c.): 2519 cpm and 2511 cpm and 2559 cpm
NS non specific binding, mean ([1]; cortex, 3 mg/kg s.c.): 2530 cpm
SB specific binding, individual animals ([1]; cortex, 3 mg/kg s.c.): 20444 cpm and 19624 cpm and 21700 cpm
SB specific binding, mean ([1]; cortex, 3 mg/kg s.c.): 20658 cpm
TB total binding, individual animals ([1]; cortex, 3 mg/kg s.c.): 22963 cpm and 22335 cpm and 24259 cpm
TB total binding, mean ([1]; cortex, 3 mg/kg s.c.): 23186 cpm
percent specific binding remaining compared to controls ([1]; cortex, 3 mg/kg s.c.): 90%
NS non specific binding, individual animals ([1]; cortex, 10 mg/kg s.c.): 2527 cpm and 2575 cpm and 2740 cpm
NS non specific binding, mean ([1]; cortex, 10 mg/kg s.c.): 2614 cpm
SB specific binding, individual animals ([1]; cortex, 10 mg/kg s.c.): 19525 cpm and 18340 cpm and 19640 cpm
SB specific binding, mean ([1]; cortex, 10 mg/kg s.c.): 19168 cpm
TB total binding, individual animals ([1]; cortex, 10 mg/kg s.c.): 22052 cpm and 20915 cpm and 22380 cpm
TB total binding, mean ([1]; cortex, 10 mg/kg s.c.): 21782 cpm
percent specific binding remaining compared to controls ([1]; cortex, 10 mg/kg s.c.): 84%
NS non specific binding, individual animals ([1]; hippocampus, 0.3 mg/kg s.c.): 2116 cpm and 2294 cpm and 2092 cpm
NS non specific binding, mean ([1]; hippocampus, 0.3 mg/kg s.c.): 2167 cpm
SB specific binding, individual animals ([1]; hippocampus, 0.3 mg/kg s.c.): 12566 cpm and 13303 cpm and 16338 cpm
SB specific binding, mean ([1]; hippocampus, 0.3 mg/kg s.c.): 14069 cpm
TB total binding, individual animals ([1]; hippocampus, 0.3 mg/kg s.c.): 14682 cpm and 15597 cpm and 18430 cpm
TB total binding, mean ([1]; hippocampus, 0.3 mg/kg s.c.): 16238 cpm
percent specific binding remaining compared to controls ([1]; hippocampus, 0.3 mg/kg s.c.): 113%
NS non specific binding, individual animals ([1]; hippocampus, 1 mg/kg s.c.): 2144 cpm and 1953 cpm and 1913 cpm
NS non specific binding, mean ([1]; hippocampus, 1 mg/kg s.c.): 2003 cpm
SB specific binding, individual animals ([1]; hippocampus, 1 mg/kg s.c.): 12048 cpm and 15010 cpm and 14100 cpm
SB specific binding, mean ([1]; hippocampus, 1 mg/kg s.c.): 13719 cpm
TB total binding, individual animals ([1]; hippocampus, 1 mg/kg s.c.): 14192 cpm and 16963 cpm and 16013 cpm
TB total binding, mean ([1]; hippocampus, 1 mg/kg s.c.): 15723 cpm
percent specific binding remaining compared to controls ([1]; hippocampus, 1 mg/kg s.c.): 110%
NS non specific binding, individual animals ([1]; hippocampus, 3 mg/kg s.c.): 1859 cpm and 1984 cpm and 1959 cpm
NS non specific binding, mean ([1]; hippocampus, 3 mg/kg s.c.): 1934 cpm
SB specific binding, individual animals ([1]; hippocampus, 3 mg/kg s.c.): 11172 cpm and 9232 cpm and 10980 cpm
SB specific binding, mean ([1]; hippocampus, 3 mg/kg s.c.): 10461 cpm
TB total binding, individual animals ([1]; hippocampus, 3 mg/kg s.c.): 13031 cpm and 11216 cpm and 12939 cpm
TB total binding, mean ([1]; hippocampus, 3 mg/kg s.c.): 12395 cpm
percent specific binding remaining compared to controls ([1]; hippocampus, 3 mg/kg s.c.): 84%
NS non specific binding, individual animals ([1]; hippocampus, 10 mg/kg s.c.): 1886 cpm and 2078 cpm and 2037 cpm
NS non specific binding, mean ([1]; hippocampus, 10 mg/kg s.c.): 2000 cpm
SB specific binding, individual animals ([1]; hippocampus, 10 mg/kg s.c.): 11059 cpm and 10041 cpm and 8937 cpm
SB specific binding, mean ([1]; hippocampus, 10 mg/kg s.c.): 10012 cpm
TB total binding, individual animals ([1]; hippocampus, 10 mg/kg s.c.): 12945 cpm and 12119 cpm and 10974 cpm
TB total binding, mean ([1]; hippocampus, 10 mg/kg s.c.): 12013 cpm
percent specific binding remaining compared to controls ([1]; hippocampus, 10 mg/kg s.c.): 80%

proportion present in plasma at 4° C. ([2]; 4° C.): 69-92%
proportion present in plasma at 37° C. ([2]; 37° C.): 40-60%
AUC ratio parent drug/radioactivity [3]: 0.7
f2 (fraction of dose eliminated within λ2) [3]: 67%
binding to plasma proteins [4]: 90%
fraction free in rat plasma ([4]; 50-5000 ng/mL, 37° C.): 10-12%
bioavailability (in vivo): 1.3 ± 0.9%
Vd (in vivo; iv, 1 mg/kg): 20 L/kg
clearance (in vivo; iv, 1 mg/kg): 4.5 mL/min
half-life (in vivo; iv, first half-life t1/2λ1): 0.45 h
half-life (in vivo; iv, terminal half-life t1/2): 24 h
SMILES: N#Cc1cc(S(=O)(=O)N2C(=O)N(CCCCCN)C(=O)C2Cc2c[nH]c3ccccc23)ccc1Oc1ccc(N)cc1 (centres unmarked) [Compound 42]
